The record followed here is US12269902B2, “Peptide compounds and peptide conjugates for the treatment of cancer through receptor-mediated chemotherapy” (TRANSFERT PLUS, S.E.C., priority 2015, dated 2025).

The structures appear in SMILES notation. Residues, ends and D or L forms follow the SMILES beside them. *: point of attachment. Biotin = O=C1N[C@H]2[C@H](CS[C@H]2CCCCC(=O)*)N1

The target in this assay is T1, sortilin (Homo sapiens, UniProt Q99523).
T1 construct: Increasing concentrations of a soluble form of sortilin was then injected over the sensor chip
T1 sequence (Q99523 78-755 limits assumed): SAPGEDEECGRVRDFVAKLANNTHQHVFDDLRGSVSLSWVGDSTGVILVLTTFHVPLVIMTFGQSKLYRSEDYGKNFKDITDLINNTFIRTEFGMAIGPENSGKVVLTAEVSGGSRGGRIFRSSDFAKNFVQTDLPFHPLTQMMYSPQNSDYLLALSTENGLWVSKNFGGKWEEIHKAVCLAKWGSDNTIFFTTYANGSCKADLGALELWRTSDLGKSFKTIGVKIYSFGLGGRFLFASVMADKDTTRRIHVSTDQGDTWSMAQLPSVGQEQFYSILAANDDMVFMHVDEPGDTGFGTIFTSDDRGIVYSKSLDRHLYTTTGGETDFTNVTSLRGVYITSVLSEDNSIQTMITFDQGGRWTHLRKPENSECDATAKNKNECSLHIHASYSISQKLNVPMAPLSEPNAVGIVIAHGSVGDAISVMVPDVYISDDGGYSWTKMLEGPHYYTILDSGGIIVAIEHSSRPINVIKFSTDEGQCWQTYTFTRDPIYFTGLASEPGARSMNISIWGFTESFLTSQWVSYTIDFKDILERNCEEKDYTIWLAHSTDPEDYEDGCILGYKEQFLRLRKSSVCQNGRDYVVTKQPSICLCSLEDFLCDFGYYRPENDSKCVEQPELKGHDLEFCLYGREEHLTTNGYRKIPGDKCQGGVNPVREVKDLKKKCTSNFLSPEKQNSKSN
The experiment in a line: biochemical. It counts as binding. The conditions noted are these: read-out: ka. How it is done:
Biotinylated Katana peptide was immobilized on a streptavidin sensor chip. A. Soluble sortilin was then injected over the immobilized peptide. The surface plasmon resonance signal was then monitored over time.
Surface plasmon resonance (SPR) was first used to investigate whether these peptides could be recognized by sortilin. For this approach, biotin was added on the C-terminal end of the Katana-Biopharma peptide during peptide synthesis. The biotinylated-peptide (KBP-103) was then immobilized on a streptavidin sensor chip using recommended procedures from the manufacturer. Increasing concentrations of a soluble form of sortilin was then injected over the sensor chip. Interactions between immobilized KBP-103 and the receptor sortilin was then monitored in real time. A representative interaction curve is shown in FIG. 1, and from the sensorgram curves the affinity constant as well as Ka and Kd were determined and are indicated in Table 2. Affinity constants (KD, Ka and […]) were extracted from various injections using the BIA evaluation software.

As for `CC[C@H](C)[C@H](N)C(=O)N[C@@H](CCCCN)C(=O)N[C@@H](CC(C)C)C(=O)N[C@@H](CO)C(=O)NCC(=O)NCC(=O)N[C@H](C(=O)N[C@@H](CCC(N)=O)C(=O)N[C@@H](C)C(=O)N[C@@H](CCCCN)C(=O)N[C@@H](C)C(=O)NCC(=O)N[C@H](C(=O)N[C@H](C(=O)N[C@@H](CC(N)=O)C(=O)N[C@@H](CCSC)C(=O)N[C@@H](Cc1ccccc1)C(=O)N[C@@H](CCCCN)C(=O)N[C@@H](CO)C(=O)N[C@@H](CCC(=O)O)C(=O)N[C@@H](CO)C(=O)N[C@@H](Cc1ccc(O)cc1)C(=O)N[C@@H](CCCCNC(=O)CCCC[C@@H]1SC[C@@H]2NC(=O)N[C@@H]21)C(=O)O)[C@@H](C)CC)C(C)C)C(C)C` [KBP-103] (H-IKLSGGVQAKAGVINMFKSESYK(Biotin)-OH), the kon was 683000 M⁻¹ s⁻¹.
